ChEMBL document CHEMBL5724806, “Unraveling interindividual differences and functional consequences of gut microbial metabolism of immunosuppressants” (2024)

Key:
Assay type in all cases: ADME
[1] = The drug is tested on Bifidobacterium adolescentis strain: DSM20083 for biotransformation under anaerobic condition. The drug concentrations were measured over 6 timepoints collected between 0 and 12 hours of incubation by liquid-chromatography-coupled mass spectrometry (LC–MS); design: dose 5 uM, timepoint 0, 1.5, 3, 6, 9, 12 hours; conditions: 5 µM
[2] = The drug is tested on Bacteroides fragilis strain: DSM2151 for biotransformation under anaerobic condition. The drug concentrations were measured over 6 timepoints collected between 0 and 12 hours of incubation by liquid-chromatography-coupled mass spectrometry (LC–MS); design: dose 5 uM, timepoint 0, 1.5, 3, 6, 9, 12 hours; conditions: 5 µM
[3] = The drug is tested on Coprococcus comes strain: ATCC27758 for biotransformation under anaerobic condition. The drug concentrations were measured over 6 timepoints collected between 0 and 12 hours of incubation by liquid-chromatography-coupled mass spectrometry (LC–MS); design: dose 5 uM, timepoint 0, 1.5, 3, 6, 9, 12 hours; conditions: 5 µM
[4] = The drug is tested on Eubacterium eligens strain: DSM3376 for biotransformation under anaerobic condition. The drug concentrations were measured over 6 timepoints collected between 0 and 12 hours of incubation by liquid-chromatography-coupled mass spectrometry (LC–MS); design: dose 5 uM, timepoint 0, 1.5, 3, 6, 9, 12 hours; conditions: lachnospira eligens, 5 µM
[5] = The drug is tested on Gemella morbillorum strain: DSM20572 for biotransformation under anaerobic condition. The drug concentrations were measured over 6 timepoints collected between 0 and 12 hours of incubation by liquid-chromatography-coupled mass spectrometry (LC–MS); design: dose 5 uM, timepoint 0, 1.5, 3, 6, 9, 12 hours; conditions: 5 µM
[6] = The drug is tested on Lactobacillus fermentum strain: DSM20052 for biotransformation under anaerobic condition. The drug concentrations were measured over 6 timepoints collected between 0 and 12 hours of incubation by liquid-chromatography-coupled mass spectrometry (LC–MS); design: dose 5 uM, timepoint 0, 1.5, 3, 6, 9, 12 hours; conditions: limosilactobacillus fermentum, 5 µM
[7] = The drug is tested on Lactobacillus reuteri strain: DSM20016 for biotransformation under anaerobic condition. The drug concentrations were measured over 6 timepoints collected between 0 and 12 hours of incubation by liquid-chromatography-coupled mass spectrometry (LC–MS); design: dose 5 uM, timepoint 0, 1.5, 3, 6, 9, 12 hours; conditions: limosilactobacillus reuteri, 5 µM
[8] = The drug is tested on Enterococcus faecalis strain: ATCC29212 for biotransformation under anaerobic condition. The drug concentrations were measured over 6 timepoints collected between 0 and 12 hours of incubation by liquid-chromatography-coupled mass spectrometry (LC–MS); design: dose 5 uM, timepoint 0, 1.5, 3, 6, 9, 12 hours; conditions: 5 µM
[9] = The drug is tested on Alloscardovia omnicolens strain: DSM21503 for biotransformation under microaerobic condition. The drug concentrations were measured over 6 timepoints collected between 0 and 12 hours of incubation by liquid-chromatography-coupled mass spectrometry (LC–MS); design: dose 5 uM, timepoint 0, 1.5, 3, 6, 9, 12 hours; conditions: 5 µM
[10] = The drug is tested on Capnocytophaga ochracea strain: DSM7271 for biotransformation under microaerobic condition. The drug concentrations were measured over 6 timepoints collected between 0 and 12 hours of incubation by liquid-chromatography-coupled mass spectrometry (LC–MS); design: dose 5 uM, timepoint 0, 1.5, 3, 6, 9, 12 hours; conditions: 5 µM
[11] = The drug is tested on Gemella haemolysans strain: DSM107751 for biotransformation under microaerobic condition. The drug concentrations were measured over 6 timepoints collected between 0 and 12 hours of incubation by liquid-chromatography-coupled mass spectrometry (LC–MS); design: dose 5 uM, timepoint 0, 1.5, 3, 6, 9, 12 hours; conditions: 5 µM
[12] = The drug is tested on Lactobacillus fermentum strain: DSM20052 for biotransformation under microaerobic condition. The drug concentrations were measured over 6 timepoints collected between 0 and 12 hours of incubation by liquid-chromatography-coupled mass spectrometry (LC–MS); design: dose 5 uM, timepoint 0, 1.5, 3, 6, 9, 12 hours; conditions: limosilactobacillus fermentum, 5 µM
[13] = The drug is tested on Enterococcus faecalis strain: ATCC29212 for biotransformation under microaerobic condition. The drug concentrations were measured over 6 timepoints collected between 0 and 12 hours of incubation by liquid-chromatography-coupled mass spectrometry (LC–MS); design: dose 5 uM, timepoint 0, 1.5, 3, 6, 9, 12 hours; conditions: 5 µM
[14] = The drug is tested on Escherichia coli strain: DSM27469 for biotransformation under microaerobic condition. The drug concentrations were measured over 6 timepoints collected between 0 and 12 hours of incubation by liquid-chromatography-coupled mass spectrometry (LC–MS); design: dose 5 uM, timepoint 0, 1.5, 3, 6, 9, 12 hours; conditions: 5 µM
[15] = The drug is tested on the gut metagenome community of A-05 with ENA study accession number: PRJEB31790 for biotransformation under anaerobic condition. The drug concentrations were measured over 7 timepoints collected between 0 and 12 hours of incubation by liquid-chromatography-coupled mass spectrometry (LC–MS); design: dose 5 uM, timepoint 0, 0.75, 1.5, 3, 6, 9, 12 hours; conditions: 5 µM
[16] = The drug is tested on the gut metagenome community of A-08 with ENA study accession number: PRJEB31790 for biotransformation under anaerobic condition. The drug concentrations were measured over 7 timepoints collected between 0 and 12 hours of incubation by liquid-chromatography-coupled mass spectrometry (LC–MS); design: dose 5 uM, timepoint 0, 0.75, 1.5, 3, 6, 9, 12 hours; conditions: 5 µM
[17] = The drug is tested on the gut metagenome community of P-02 with ENA study accession number: PRJEB31790 for biotransformation under anaerobic condition. The drug concentrations were measured over 7 timepoints collected between 0 and 12 hours of incubation by liquid-chromatography-coupled mass spectrometry (LC–MS); design: dose 5 uM, timepoint 0, 0.75, 1.5, 3, 6, 9, 12 hours; conditions: 5 µM
[18] = The drug is tested on the gut metagenome community of P-04 with ENA study accession number: PRJEB31790 for biotransformation under anaerobic condition. The drug concentrations were measured over 7 timepoints collected between 0 and 12 hours of incubation by liquid-chromatography-coupled mass spectrometry (LC–MS); design: dose 5 uM, timepoint 0, 0.75, 1.5, 3, 6, 9, 12 hours; conditions: 5 µM
[19] = The drug is tested on the gut metagenome community of A-02 with ENA study accession number: PRJEB31790 for biotransformation under microaerobic condition. The drug concentrations were measured over 7 timepoints collected between 0 and 12 hours of incubation by liquid-chromatography-coupled mass spectrometry (LC–MS); design: dose 5 uM, timepoint 0, 0.75, 1.5, 3, 6, 9, 12 hours; conditions: 5 µM
[20] = The drug is tested on the gut metagenome community of A-06 with ENA study accession number: PRJEB31790 for biotransformation under microaerobic condition. The drug concentrations were measured over 7 timepoints collected between 0 and 12 hours of incubation by liquid-chromatography-coupled mass spectrometry (LC–MS); design: dose 5 uM, timepoint 0, 0.75, 1.5, 3, 6, 9, 12 hours; conditions: 5 µM
[21] = The drug is tested on the gut metagenome community of A-07 with ENA study accession number: PRJEB31790 for biotransformation under microaerobic condition. The drug concentrations were measured over 7 timepoints collected between 0 and 12 hours of incubation by liquid-chromatography-coupled mass spectrometry (LC–MS); design: dose 5 uM, timepoint 0, 0.75, 1.5, 3, 6, 9, 12 hours; conditions: 5 µM
[22] = The drug is tested on the gut metagenome community of A-09 with ENA study accession number: PRJEB31790 for biotransformation under microaerobic condition. The drug concentrations were measured over 7 timepoints collected between 0 and 12 hours of incubation by liquid-chromatography-coupled mass spectrometry (LC–MS); design: dose 5 uM, timepoint 0, 0.75, 1.5, 3, 6, 9, 12 hours; conditions: 5 µM
[23] = The drug is tested on the gut metagenome community of P-02 with ENA study accession number: PRJEB31790 for biotransformation under microaerobic condition. The drug concentrations were measured over 7 timepoints collected between 0 and 12 hours of incubation by liquid-chromatography-coupled mass spectrometry (LC–MS); design: dose 5 uM, timepoint 0, 0.75, 1.5, 3, 6, 9, 12 hours; conditions: 5 µM
[24] = The drug is tested on the gut metagenome community of T-01 with ENA study accession number: PRJEB31790 for biotransformation under microaerobic condition. The drug concentrations were measured over 7 timepoints collected between 0 and 12 hours of incubation by liquid-chromatography-coupled mass spectrometry (LC–MS); design: dose 5 uM, timepoint 0, 0.75, 1.5, 3, 6, 9, 12 hours; conditions: 5 µM
[25] = The drug is tested on the gut metagenome community of T-03 with ENA study accession number: PRJEB31790 for biotransformation under microaerobic condition. The drug concentrations were measured over 7 timepoints collected between 0 and 12 hours of incubation by liquid-chromatography-coupled mass spectrometry (LC–MS); design: dose 5 uM, timepoint 0, 0.75, 1.5, 3, 6, 9, 12 hours; conditions: 5 µM

SMILES | Bacterial Biotransformation [1] | Bacterial Biotransformation [2] | Bacterial Biotransformation [3] | Bacterial Biotransformation [4] | Bacterial Biotransformation [5] | Bacterial Biotransformation [6] | Bacterial Biotransformation [7] | Bacterial Biotransformation [8] | Bacterial Biotransformation [9] | Bacterial Biotransformation [10] | Bacterial Biotransformation [11] | Bacterial Biotransformation [12] | Bacterial Biotransformation [13] | Bacterial Biotransformation [14] | Bacterial Biotransformation [15] | Bacterial Biotransformation [16] | Bacterial Biotransformation [17] | Bacterial Biotransformation [18] | Bacterial Biotransformation [19] | Bacterial Biotransformation [20] | other results
C[C@H]1C[C@H]2[C@@H]3CCC4=CC(=O)C=C[C@]4(C)[C@@]3(F)[C@@H](O)C[C@]2(C)[C@@]1(O)C(=O)CO [BETAMETHASONE] | Compound NOT metabolized | Compound NOT metabolized | Compound NOT metabolized | Compound NOT metabolized | Compound NOT metabolized | Compound NOT metabolized | Compound NOT metabolized | Compound NOT metabolized | Compound NOT metabolized | Compound NOT metabolized | Compound NOT metabolized | Compound NOT metabolized | Compound NOT metabolized | Compound NOT metabolized | Compound NOT metabolized | Compound metabolized | Compound metabolized | Compound NOT metabolized | Compound metabolized | Compound NOT metabolized | Bacterial Biotransformation [21]: Compound metabolized; Bacterial Biotransformation [22]: Compound metabolized; Bacterial Biotransformation [23]: Compound NOT metabolized; Bacterial Biotransformation [24]: Compound NOT metabolized; Bacterial Biotransformation [25]: Compound NOT metabolized
CCCC1O[C@@H]2C[C@H]3[C@@H]4CCC5=CC(=O)C=C[C@]5(C)[C@H]4[C@@H](O)C[C@]3(C)[C@]2(C(=O)CO)O1 (stereo not given in full) [BUDESONIDE] | Compound NOT metabolized | Compound NOT metabolized | Compound NOT metabolized | Compound NOT metabolized | Compound NOT metabolized | Compound NOT metabolized | Compound NOT metabolized | Compound NOT metabolized | Compound NOT metabolized | Compound NOT metabolized | Compound NOT metabolized | Compound NOT metabolized | Compound NOT metabolized | Compound NOT metabolized | Compound NOT metabolized | Compound metabolized | Compound metabolized | Compound NOT metabolized | Compound metabolized | Compound metabolized | Bacterial Biotransformation [21]: Compound metabolized; Bacterial Biotransformation [22]: Compound metabolized; Bacterial Biotransformation [23]: Compound NOT metabolized; Bacterial Biotransformation [24]: Compound metabolized; Bacterial Biotransformation [25]: Compound NOT metabolized
C[C@]12CCC(=O)C=C1CC[C@@H]1[C@@H]2C(=O)C[C@@]2(C)[C@H]1CC[C@]2(O)C(=O)CO [CORTISONE] | Compound NOT metabolized | Compound NOT metabolized | Compound NOT metabolized | Compound NOT metabolized | Compound NOT metabolized | Compound NOT metabolized | Compound NOT metabolized | Compound NOT metabolized | Compound NOT metabolized | Compound NOT metabolized | Compound NOT metabolized | Compound NOT metabolized | Compound NOT metabolized | Compound NOT metabolized | Compound metabolized | Compound metabolized | Compound metabolized | Compound metabolized | Compound metabolized | Compound metabolized | Bacterial Biotransformation [21]: Compound metabolized; Bacterial Biotransformation [22]: Compound metabolized; Bacterial Biotransformation [23]: Compound metabolized; Bacterial Biotransformation [24]: Compound metabolized; Bacterial Biotransformation [25]: Compound NOT metabolized
